Our source for the IC50 values is US10221171B2, “Oxathiazole thiazolium Hsp 70 inhibitors” (THE REGENTS OF THE UNIVERSITY OF CALIFORNIA, priority 2015, dated 2019).

Common to all, as to format: cell-based
Experiment [1] relates to MCF-7. The experiment is described as follows: MTT cell viability assay, MCF-7. The note with it: Homo sapiens, read-out: IC50/μM MCF-7. The protocol: (§1) Cells were then treated with compound at various concentrations in 0.2 mL media. After the 72-hour incubation period, cells were washed in PBS (3×100 μL), and 10 μL MTT reagent was added with 100 μL fresh media. Cells were then incubated for 4 hr in a humidified chamber at 37° C. with 5% CO2. Insoluble formazan crystals were solubilized by addition of 0.1 mL detergent solution (4 hr at room temp., dark). Resulting colored solutions were then quantified at an absorbance of 570 nm.
For orientation: Formazan colour is commonly taken as a measure of viable cells.

Experiment [2] deals with MDA-MB-231. The experiment can be described thus: MTT cell viability assay, MDA-MB-231. Particulars: Homo sapiens. The method, then:
as §1

In experiment [3] the test system is MEF (C57BL/6). The experiment can be described thus: MTT cell viability assay, MEF (C57BL/6). Particulars: Mus musculus. The protocol:
as §1

Setting [4] is: MTT, 72-hour incubation, read-out: IC50/μM MEF (C57BL/6).
[5] abbreviates: MCF7, 72 h, MTT, 72-hour incubation.
Setting [6] is: MDA-MB-231, 72 h, 72-hour incubation.
The mark [7] stands for this setting: 72 h, read-out: IC50/μM MEF (C57BL/6), MTT, 72-hour incubation.

SMILES strings stand for the structures. Read-outs that look alike come from different tables or passages of the source.

For `CCn1c(=O)/c(=C2\Sc3cc(Cl)ccc3N2C)s/c1=C\c1scc[n+]1Cc1ccccc1OC(C)=O` [JG-247], the IC50 was 1.58 ± 0.18 µM in experiment [1] (MCF7, MTT, 72-hour incubation); 1.8 ± 0.3 µM in experiment [2] (MDA-MB-231, 72-hour incubation); 6.1 ± 0.3 µM in experiment [3] (setting [4]).
The matching figures for `CCn1c(=O)/c(=C2\Sc3cc(C)ccc3N2C)s/c1=C\c1scc[n+]1Cc1ccsc1C(=O)OC` [JG-248]: 0.14 ± 0.01 µM, 0.11 ± 0.01 µM and 1.2 ± 0.2 µM.
Take `CCn1c(=O)/c(=C2\Sc3cc(SC)ccc3N2C)s/c1=C\c1scc[n+]1Cc1ccccc1` [JG-249]: the IC50 in experiment [1] (setting [5]) is 0.13 ± 0.01 µM; in experiment [2] (setting [6]), 0.12 ± 0.01 µM; in experiment [3] (setting [7]), 1.7 ± 0.1 µM.
Turning to `CCn1c(=O)/c(=C2\Sc3cc(OC)ccc3N2C)s/c1=C\c1scc[n+]1Cc1ccccc1` [JG-250], the IC50 in experiment [1] (setting [5]) was 0.13 ± 0.01 µM; in experiment [2] (setting [6]), 0.16 ± 0.01 µM; in experiment [3] (setting [4]) it was 2 ± 0.1 µM.
As for `CCn1c(=O)/c(=C2\Sc3cc(F)c(F)cc3N2C)s/c1=C\c1scc[n+]1Cc1ccccc1` [JG-251], the IC50 worked out at 2.5 ± 0.5 µM in experiment [1] (MCF7, MTT, 72-hour incubation); 1.1 ± 0.1 µM in experiment [2] (MDA-MB-231, 72-hour incubation); 0.91 ± 0.06 µM in experiment [3] (setting [4]).
Regarding `CCn1c(=O)/c(=C2\Sc3cc([N+](=O)[O-])ccc3N2C)s/c1=C\c1scc[n+]1Cc1ccccc1` [JG-252], the IC50 in experiment [1] (MCF7, MTT, 72-hour incubation) was greater than 5 µM; in experiment [2] (setting [6]) it was 4.8 ± 0.4 µM; in experiment [3] (setting [7]), 2.8 ± 0.1 µM.
Regarding `CCn1c(=O)/c(=C2\Sc3cc(Cl)ccc3N2C)s/c1=C\c1scc[n+]1Cc1ccccc1SC(F)(F)F` [JG-253], the IC50 in experiment [1] (setting [5]) is 0.13 ± 0.01 µM; in experiment [2] (setting [6]), 0.16 ± 0.01 µM; in experiment [3] (setting [7]), 3.7 ± 0.2 µM.
As to `CCn1c(=O)/c(=C2\Sc3cc(F)ccc3N2C)s/c1=C\c1scc[n+]1Cc1ccccc1SC(F)(F)F` [JG-254], the IC50 in experiment [1] (MCF7, MTT, 72-hour incubation) stood at 0.65 ± 0.13 µM; in experiment [2] (MDA-MB-231, 72-hour incubation) it was 0.1 ± 0.01 µM; in experiment [3] (setting [4]), 1.5 ± 0.1 µM.
In the case of `CCn1c(=O)/c(=C2\Sc3cc(Cl)ccc3N2C)s/c1=C\c1scc[n+]1Cc1ccc(Cl)cc1` [JG-255], the IC50 was 1.45 ± 0.13 µM in experiment [1] (setting [5]), 0.41 ± 0.06 µM in experiment [2] (setting [6]) and 3.1 ± 0.3 µM in experiment [3] (setting [7]).
On to `CCn1c(=O)/c(=C2\Sc3cc(Cl)ccc3N2C)s/c1=C\c1scc[n+]1Cc1ccc(Cl)cc1` [JG-256], for which the IC50 in experiment [1] (MCF7, MTT, 72-hour incubation) amounted to 0.72 ± 0.06 µM; in experiment [2] (MDA-MB-231, 72-hour incubation) it was 1.1 ± 0.1 µM; in experiment [3] (setting [4]), 2.2 ± 0.1 µM.
As to `CCn1c(=O)/c(=C2\Sc3cc(Cl)ccc3N2C)s/c1=C\c1scc[n+]1Cc1ccnc(Cl)c1` [JG-257], the IC50 was greater than 5 µM in experiment [1] (MCF7, MTT, 72-hour incubation); 7.2 ± 0.8 µM in experiment [2] (setting [6]); 1.1 ± 0.1 µM in experiment [3] (setting [4]).
With `CCn1c(=O)/c(=C2\SCCN2C)s/c1=C\c1scc[n+]1Cc1ccccc1` [JG-258], the IC50 in experiment [1] (MCF7, MTT, 72-hour incubation) is greater than 5 µM; in experiment [2] (MDA-MB-231, 72-hour incubation) it was greater than 20 µM; in experiment [3] (setting [4]), greater than 10 µM.
As to `CCn1c(=O)/c(=C2\Sc3cc(Cl)ccc3N2C)s/c1=C\c1scc[n+]1Cc1cnc(Cl)s1` [JG-259], the IC50 in experiment [1] (MCF7, MTT, 72-hour incubation) is greater than 5 µM; in experiment [2] (setting [6]), 2.3 ± 0.3 µM; in experiment [3] (setting [7]), 8.9 ± 0.8 µM.
For the compound `CCn1c(=O)/c(=C2\Sc3cc(F)ccc3N2C)s/c1=C\c1scc[n+]1Cc1cnc(Cl)s1` [JG-260], the IC50 is greater than 5 µM in experiment [1] (MCF7, MTT, 72-hour incubation); 6.7 ± 0.5 µM in experiment [2] (MDA-MB-231, 72-hour incubation); 8.2 ± 0.4 µM in experiment [3] (setting [4]).
Regarding `CCn1c(=O)/c(=C2\Sc3cc(Cl)ccc3N2C)s/c1=C\c1scc[n+]1Cc1csc(NC(C)=O)n1` [JG-261], the IC50 in experiment [1] (MCF7, MTT, 72-hour incubation) was greater than 5 µM; in experiment [2] (MDA-MB-231, 72-hour incubation) it was greater than 20 µM; in experiment [3] (setting [7]) it was 4.2 ± 0.6 µM.
Turning to `CCn1c(=O)/c(=C2\Sc3cc(F)ccc3N2C)s/c1=C\c1scc[n+]1Cc1csc(NC(C)=O)n1` [JG-262], the IC50 was greater than 5 µM in experiment [1] (MCF7, MTT, 72-hour incubation); greater than 20 µM in experiment [2] (MDA-MB-231, 72-hour incubation); greater than 10 µM in experiment [3] (setting [4]).
Regarding `CCn1c(=O)/c(=C2\Sc3cc(Cl)ccc3N2C)s/c1=C\c1scc[n+]1Cc1ccccc1OC` [JG-263], the IC50 in experiment [1] (MCF7, 72 h) was found to be 0.4 ± 0.03 µM; in experiment [2] (setting [6]) it was 0.12 ± 0.01 µM; in experiment [3] (setting [7]), 1.5 ± 0.1 µM.
Take `CCn1c(=O)/c(=C2\Sc3cc(F)ccc3N2C)s/c1=C\c1scc[n+]1Cc1ccccc1OC` [JG-264]: the IC50 in experiment [1] (MCF7, MTT, 72-hour incubation) was determined as 0.49 ± 0.04 µM; in experiment [2] (MDA-MB-231, 72-hour incubation), 0.24 ± 0.03 µM; in experiment [3] (setting [4]) it was 1.4 ± 0.1 µM.
With `CCn1c(=O)/c(=C2\Sc3cc(Cl)ccc3N2C)s/c1=C\c1scc[n+]1Cc1occc1C(=O)OC` [JG-265], the IC50 in experiment [1] (setting [5]) stood at 0.81 ± 0.09 µM; in experiment [2] (setting [6]), 0.13 ± 0.01 µM; in experiment [3] (setting [7]), 2.7 ± 0.1 µM.
As to `CCn1c(=O)/c(=C2\Sc3cc(F)ccc3N2C)s/c1=C\c1scc[n+]1Cc1occc1C(=O)OC` [JG-266], the IC50 is 0.87 ± 0.11 µM in experiment [1] (MCF7, MTT, 72-hour incubation); 0.3 ± 0.02 µM in experiment [2] (MDA-MB-231, 72-hour incubation); 2.7 ± 0.2 µM in experiment [3] (setting [4]).
Turning to `CCn1c(=O)/c(=C2\Sc3cc(Cl)ccc3N2C)s/c1=C\c1scc[n+]1Cc1c(C)noc1C` [JG-267], the IC50 in experiment [1] (MCF7, MTT, 72-hour incubation) is greater than 5 µM; in experiment [2] (MDA-MB-231, 72-hour incubation), 10 ± 2 µM; in experiment [3] (setting [7]), 7.6 ± 0.3 µM.
